The numbers were not newly measured in patent US20190083388A1, “SYNTHENTIC TRANSDERMAL CANNABIDIOL FOR THE TREATMENT OF FOCAL EPILEPSY IN ADULTS” (ZYNERBA PHARMACEUTICALS, INC., priority 2017, published 2019), which cites them from elsewhere.

Read-outs that look alike come from different tables or passages of the source.

The target of series [1] is CB2 receptors (Homo sapiens, UniProt P34972).
Test in series [2]: not given
The source holds these as a separate data set.

Chain of CB2 receptors (P34972 whole entry): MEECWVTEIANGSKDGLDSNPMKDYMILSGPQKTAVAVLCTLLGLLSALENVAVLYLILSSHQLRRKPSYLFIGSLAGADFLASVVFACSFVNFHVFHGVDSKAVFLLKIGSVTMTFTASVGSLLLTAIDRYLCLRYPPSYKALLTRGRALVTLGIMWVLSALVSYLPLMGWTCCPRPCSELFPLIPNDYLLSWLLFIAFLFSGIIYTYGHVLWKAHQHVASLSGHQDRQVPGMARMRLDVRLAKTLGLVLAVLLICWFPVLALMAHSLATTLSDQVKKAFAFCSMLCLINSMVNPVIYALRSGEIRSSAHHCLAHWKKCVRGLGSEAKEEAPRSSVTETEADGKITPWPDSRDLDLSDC

In the case of `C=C(C)C1CCC(C)=CC1c1c(O)cc(CCCCC)cc1O` (stereo not shown) [CBD, 2-[3-methyl-6-(1-methylethenyl)-2-cyclohexen-1-yl]-5-pentyl-1,3-benzenediol], the “affinity for CB2 receptors” value in series [1] was “low affinity”. Further, the bioavailability result is on record as “≈ 6%” (oral) and “about 25%” (transdermal delivery). Also, the solubility in water result in series [2] was “virtually insoluble”.
